We go through 5 compounds from patent US11471436B2, “Dihydronaphthalene derivative” (ONO PHARMACEUTICAL CO., LTD., priority 2014, dated 2022).

Test [1] concerns the target T1, human S1P1 (EDG-1) (Homo sapiens, UniProt P21453). Description: Inhibition of binding of [33P]-S1P to S1P1, CHO membrane fractions. The settings on record: [33P]-S1P binding, membrane fractions of CHO cells overexpressing human S1P1. How it is done: (§1) Measurement of the Inhibitory Action of the Compound of the Present Invention on Binding of [^33P]-S1P to S1P5 (EDG-8)
(§2) A reaction was carried out in a 96-well microplate by using membrane fractions of Chinese hamster ovary (CHO) cells each of which was made to overexpress human S1P1 (EDG-1) or human S1P5 gene respectively, in an amount of the membrane fraction of 1 mg protein/mL. To each of the wells, 100 μL of a vehicle (DMSO) solution or a ligand solution at a two-fold concentration diluted with Binding Buffer (50 mmol/L, Tris pH 7.5, 5 mmol/L, MgCl2, 0.5% BSA and Complete EDTA free (1 tablet/50 mL)) and […] of 0.16 nmol/L [^33P]-S1P (manufactured by American Radiolabeled Chemicals, Inc.) diluted with Binding Buffer were added, and thereafter, each of membrane fraction solutions (50 μL) was added and the reaction was carried out at room temperature for 60 minutes. After the reaction, suction filtration was carried out by using a 96-well UNIFILTER, and the 96-well microplate was washed with Wash Buffer (50 mmol/L, Tris pH 7.5, 0.5% BSA) (150 mL), and thereafter, was dried at 60° C. for 45 minutes. MicroScint (trade name) 20 (50 μL/well) was added and the plate was covered with TopSeal-A, and thereafter, the radioactivity was measured by using TopCount (manufactured by PerkinElmer Inc.).

Test [2] concerns the target T2, human S1P5 (EDG-8) (Homo sapiens, UniProt Q9H228). As to the kind of experiment: Inhibition of binding of [33P]-S1P to S1P5, CHO membrane fractions. The settings on record: for IC50: [33P]-S1P binding, membrane fractions of CHO cells overexpressing human S1P5. As to the method: as §1, §2
The target of test [3] is T1, human S1P1 (EDG-1). As to the kind of experiment: S1P receptor agonist activity by monitoring intracellular cyclic AMP, CHO cells overexpressing S1P1. Type of test: cell-based. To be noted: forskolin-stimulated CHO cells overexpressing human S1P1, read-out: EC 50 value with regard to S1P1 receptor. How it is done:
(§3) Evaluation of S1P Receptor Agonist Activities of the Compound of the Present Invention by Monitoring the Concentration of Produced Intracellular Cyclic AMP
(§4) CHO cells which were made to overexpress either human S1P1 (EDG-1) or human S1P5 (EDG-8) gene respectively were cultured in Ham's F12 Medium (manufactured by Gibco-BRL) containing 10% FBS (fetal bovine serum), penicillin/streptomycin and geneticin (0.25 mg/mL). The medium was removed from the cultured cells, the cultured cells were washed once with phosphate-buffered saline, and the cultured cells were treated with a vehicle (DMSO) solution or a compound solution each of which was diluted with Buffer (Hanks' balanced salt solution containing 20 mmol/L HEPES, 0.1 or 0.2% BSA, 1 mmol/L IBMX and 50 μmol/L forskolin) at 37° C. for 30 minutes. Thereafter, the cultured cells were washed once with phosphate-buffered saline. After lysing the cells, the concentration of cyclic AMP in the cell lysate were measured by using cAMP Assay Kit (GE Healthcare).

For test [4], the target named is T2, human S1P5 (EDG-8). As to the kind of experiment: S1P receptor agonist activity by monitoring intracellular cyclic AMP, CHO cells overexpressing S1P5. The settings on record: forskolin-stimulated CHO cells overexpressing human S1P5, read-out: EC 50 value with regard to S1P5 receptor. Type of test: cell-based. As to the method:
as §3, §4

T1 sequence (P21453 whole entry): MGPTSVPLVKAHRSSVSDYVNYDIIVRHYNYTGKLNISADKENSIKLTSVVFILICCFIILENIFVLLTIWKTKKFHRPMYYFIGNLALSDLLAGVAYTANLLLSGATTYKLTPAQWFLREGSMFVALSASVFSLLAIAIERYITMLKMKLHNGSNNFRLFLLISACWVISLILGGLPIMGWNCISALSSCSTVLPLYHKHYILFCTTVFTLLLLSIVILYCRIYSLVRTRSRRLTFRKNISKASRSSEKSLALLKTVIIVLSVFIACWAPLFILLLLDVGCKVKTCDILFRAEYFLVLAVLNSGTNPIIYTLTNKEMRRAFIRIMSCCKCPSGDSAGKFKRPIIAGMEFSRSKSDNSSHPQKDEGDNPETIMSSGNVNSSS
T2 sequence (Q9H228 whole entry): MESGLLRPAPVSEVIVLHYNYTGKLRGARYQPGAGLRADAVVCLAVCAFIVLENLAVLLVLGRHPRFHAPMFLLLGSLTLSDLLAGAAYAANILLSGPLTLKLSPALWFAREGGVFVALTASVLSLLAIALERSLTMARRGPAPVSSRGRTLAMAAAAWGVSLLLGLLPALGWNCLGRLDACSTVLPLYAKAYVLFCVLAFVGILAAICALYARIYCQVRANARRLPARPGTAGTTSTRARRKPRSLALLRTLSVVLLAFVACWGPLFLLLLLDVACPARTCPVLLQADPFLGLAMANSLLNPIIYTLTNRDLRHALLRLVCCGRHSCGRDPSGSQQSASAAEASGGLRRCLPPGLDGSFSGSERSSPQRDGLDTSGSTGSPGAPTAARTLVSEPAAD

What is called IC50 is the concentration that gives 50% inhibition. Regarding `CCCCc1ccc(Oc2ccc3c(c2)CCC(CN2CC(C(=O)O)C2)=C3C)cc1.Cl` [Comparative Compound A, 1-{[6-(4-butylphenoxy)-1-methyl-3,4-dihydronaphthalen-2-yl]methyl}azetidine-3-carboxylic acid hydrochloride, reference compound], the IC50 came out at 475 nM on human S1P1 (EDG-1) [1] and 76 nM at human S1P5 (EDG-8) [2]. In addition, on human S1P5 (EDG-8) [2] (conclusion in words from binding IC50 values S1P1 vs S1P5), the “balance of an S1P5 receptor agonist activity against an S1P1 receptor agonist activity” value was “had both S1P1 and S1P5 receptor agonist activities”.

Regarding `O=C(O)C1CN(CC2=Cc3ccc(OC4CCCCC4)cc3CC2)C1` [Example 9 (2), 1-{[6-(Cyclohexyloxy)-3,4-dihydro-2-naphthalenyl]methyl}-3-azetidinecarboxylic acid], the IC50 at human S1P1 (EDG-1) [1] was > 10000 nM; at human S1P5 (EDG-8) [2], 57.2 nM.

Take `CC1=C(CN2CC(C(=O)O)C2)CCc2cc(-c3ccccc3)ccc21` [Example 14 (1), 1-[(1-Methyl-6-phenyl-3,4-dihydro-2-naphthalenyl)methyl]-3-azetidinecarboxylic acid]: the IC50 is > 10000 nM at human S1P1 (EDG-1) [1] and 22.4 nM at human S1P5 (EDG-8) [2].

For the compound `CC1=C(CN2CC(C(=O)O)C2)CCc2cc(-c3ccccn3)ccc21` [Example 14 (3), 1-{[1-Methyl-6-(2-pyridinyl)-3,4-dihydro-2-naphthalenyl]methyl}-3-azetidinecarboxylic acid], the IC50 at human S1P1 (EDG-1) [1] is > 10000 nM; at human S1P5 (EDG-8) [2], 67.2 nM.

Turning to `CC1Cc2cc(OC3CCCCC3)ccc2C=C1CN1CC(C(=O)O)C1` (stereo not shown) [Example 21, 1-{[6-(Cyclohexyloxy)-3-methyl-3,4-dihydro-2-naphthalenyl]methyl}-3-azetidinecarboxylic acid], the IC50 on human S1P1 (EDG-1) [1] is > 10000 nM; at human S1P5 (EDG-8) [2], 16 nM. In addition, the EC50 amounted to 9.99 µM at human S1P1 (EDG-1) [3] and 0.2 nM at human S1P5 (EDG-8) [4].
